# Experimental data as given in patent publication US20040024024A1, “Aromatic sulfone hydroxamates and their use as protease inhibitors” (priority 2001, published 2004).
# Where “and” joins values, the source holds several entries; their conditions need not be identical. Equal values may be shown once. Where a name gives a salt, the structure may show the parent alone.
# How the values were obtained:
# Human recombinant MMP-13 = molecular target: T1, Human recombinant MMP-13 (Homo sapiens, UniProt P45452); assay: In vitro MMP inhibition, IC50 determination (fluorogenic substrate I); type: biochemical
# T1 construct: made in house; host or cells: baculovirus / insect cells
# Summary of the method: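 Fluorescence at 415 nm (excitation 328 nm) reports Gly-Leu cleavage of 4 μM quenched methoxycoumarin peptide substrate I. Human recombinant MMP-13, activated by trypsin or APMA, was incubated at room temperature with varied inhibitor concentrations in pH 7.5 Tris/NaCl/CaCl2 buffer; IC50 derived from reduced fluorescence.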
# Human recombinant MMP-9 = molecular target: T2, Human recombinant MMP-9 (Homo sapiens, UniProt P14780); assay: In vitro MMP inhibition, Ki determination (fluorogenic substrate II); type: biochemical
# T2 construct: made in house; host or cells: MMP-9-transfected HT1080 cells (spent media)
# Protocol: Several hydroxamates and salts thereof were analyzed in in vitro assays to determine their ability to inhibit the MMP cleavage of peptide substrates. Inhibition (Ki) and IC50 constants were calculated from the assayed hydroxamate-MMP interactions.
# Human recombinant MMP-1, MMP-2, MMP-9, MMP-13, and MMP-14 were used in this assay. All enzymes were prepared in Assignee's laboratories following usual laboratory procedures. Protocols for the preparation and use of these enzymes are available in the scientific literature. See, e.g., Enzyme Nomenclature (Academic Press, San Diego, Calif., 1992) (and the citations therein). See also, Frije et al., J. Biol. Chem., 26(24), 16766-73 (1994).
# The MMP-9 proenzyme was purified by gelatin Sepharose chromatography from spent media of MMP-9-transfected HT1080 cells provided by Dr. Howard Welgus of Washington University (St. Louis, Mo.).
# All MMPs were activated using 4-aminophenylmercuric acetate (“APMA”, Sigma Chemical, St. Louis, Mo.) or trypsin. MMP-9 also was activated using human recombinant MMP-3 (purified in Assignee's laboratory following standard cloning and purification techniques).
# Two fluorogenic, methoxycoumarin-containing polypeptide substrates were used in the MMP inhibition assays:
# MCA-ArgProLeuGlyLeuDpaAlaArgGluArgNH2 (II)
# Here, “Dpa” is 3-(2,4-dinitrophenyl)-L-2,3-diaminopropionyl group, and “MCA” is 7-methoxycoumarin-4-yl acetyl. Substrate (I) was purchased from Baychem (Redwood City, Calif.), and substrate II was prepared Assignee's laboratory. Substrate I was used in the IC50 determination assays, while substrate II was used in the Ki determination assays. In the absence of MMP inhibitory activity, either substrate is cleaved at the Gly-Leu peptide bond. This cleavage separates the highly fluorogenic peptide from the 2,4-dinitrophenyl quencher, thus resulting in increase of fluorescent intensity.
# The stock solutions of the assayed hydroxamates (or salts thereof) were prepared in 1% dimethyl sulfoxide (DMSO). These stock solutions were diluted in Buffer A (100 mM Tris-HCl, 100 mM NaCl, 10 mM CaCl2, 0.05% polyoxyethylene 23 lauryl ether, pH 7.5) to obtain solutions with different hydroxamate concentrations, i.e., assay solutions with different concentrations of the assayed MMP inhibitory compound. The experiment controls contained the same amount of Buffer A/DMSO as the assayed sample, but contained no hydroxamate (or salt thereof).
# The assays from which the Ki determinations were made were performed as follows. The assayed hydroxamate samples were incubated in separate wells of untreated white polystyrene plates (Nunc Nalgene International, Rochester, N.Y.), and analyzed on a Tecan SpectraFlour Plus plate reader. The excitation wavelength was 330 nm, and the emission wavelength—420 nm. All samples (assayed hydroxamates and controls) were incubated in separate plate wells at room temperature for 1 hr in the presence of 4 μM of MMP substrate (II). In the absence of MMP inhibitory activity, substrate II was cleaved at the Gly-Leu bond resulting in an increase of relative fluorescence. Inhibition was observed as a reduced rate of this increase in relative fluorescence. The various hydroxamates were analyzed using a single low enzyme concentration with a single substrate concentration fixed at or below the Km. This protocol is a modification of method by Knight et al., FEBS Lett., 296(3), 263-266 (1992). Apparent inhibitory constants were determined by non-linear regression of reaction velocity as a function of inhibitor and enzyme concentration using Morrison's equation, as described by Kuzmic, Anal. Biochem. 286, 45-50 (2000). Modifications were made in the non-linear regression method to allow a common control reaction rate and effective enzyme concentration to be shared between all dose-response relationships on a given assay plate. […]
# [1] = substrate (I) 4 μM, room temperature, values not in parenthesis
# [2] = substrate (II) 4 μM, 1 hr room temperature, apparent Ki, values in parenthesis
# T2 sequence (P14780 107-707 limits assumed): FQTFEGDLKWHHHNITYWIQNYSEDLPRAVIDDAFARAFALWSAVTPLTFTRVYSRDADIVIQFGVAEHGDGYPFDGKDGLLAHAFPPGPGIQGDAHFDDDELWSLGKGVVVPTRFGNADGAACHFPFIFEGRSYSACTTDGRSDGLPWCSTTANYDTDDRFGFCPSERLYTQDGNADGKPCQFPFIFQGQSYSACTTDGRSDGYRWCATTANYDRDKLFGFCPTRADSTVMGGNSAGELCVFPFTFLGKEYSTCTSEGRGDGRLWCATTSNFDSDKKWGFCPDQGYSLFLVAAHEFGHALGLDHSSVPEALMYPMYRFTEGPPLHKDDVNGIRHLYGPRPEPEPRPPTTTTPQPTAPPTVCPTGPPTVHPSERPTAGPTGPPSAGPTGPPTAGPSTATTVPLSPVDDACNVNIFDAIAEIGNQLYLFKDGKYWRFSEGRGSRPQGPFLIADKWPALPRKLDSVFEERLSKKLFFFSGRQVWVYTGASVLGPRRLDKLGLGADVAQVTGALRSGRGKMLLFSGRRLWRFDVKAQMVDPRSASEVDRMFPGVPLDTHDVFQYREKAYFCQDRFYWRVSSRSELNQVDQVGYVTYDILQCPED
Structure (SMILES),IC50 (Human recombinant MMP-13; [1]) [nM],Ki (Human recombinant MMP-9; [2]),IC50 (Human recombinant MMP-13; value outside parenthesis) [nM],Ki (Human recombinant MMP-9; value in parenthesis) [nM]
"O=C(NO)C1(S(=O)(=O)c2ccc(OCCCc3nc(-c4ccc(OC(F)(F)F)cc4)no3)cc2)CCOCC1 [Example 31, tetrahydro-N-hydroxy-4-[[4-[3-[3[4-(trifluoromethoxy)phenyl]-1,2,4-oxadiazol-5-yl]propoxy]phenyl]sulfonyl]-2H-pyran-4-carboxamide]",2.1,1600 nM,,
O=C(NO)C1(S(=O)(=O)c2ccc(OCCCc3cccc(-c4ccc(F)cc4)c3)cc2)CCOCC1 [Example 39],0.9,2360 nM,,
O=C(NO)C1(S(=O)(=O)c2ccc(OCCc3cccc(-c4ccccn4)c3)cc2)CCOCC1 [Example 40],0.5,585 nM,,
"CCN1CCC(C(=O)NO)(S(=O)(=O)c2ccc(OCCCc3nc(-c4ccc(OC(F)(F)F)cc4)no3)cc2)CC1 [Example 41, 1-ethyl-N-hydroxy 4-{[4-(3-{3-[4-(trifluoromethoxy)phenyl]-1,2,4-oxadiazol-5-yl}propoxy)phenyl]sulfonyl}piperidine-4-carboxamide Hydrochloride]",2,1470 nM,,
COCCN1CCC(C(=O)NO)(S(=O)(=O)c2ccc(OCCCc3nc(-c4ccc(OC(F)(F)F)cc4)no3)cc2)CC1 [Example 42],0.3,662 nM,,
CCN1CCC(C(=O)NO)(S(=O)(=O)c2ccc(OCCCc3cccc(-c4ccccc4)c3)cc2)CC1 [Example 46],3.1,418 nM,,
"COCCN1CCC(C(=O)NO)(S(=O)(=O)c2ccc(OCCCc3cc(-c4ccc(F)cc4F)cs3)cc2)CC1 [Example 47, 4-[(4-{3-[4-(2,4-difluorophenyl)thien-2-l]propoxy}phenyl)sulfonyl]-N-hydroxy-1-(2-methoxyethyl)piperidine-4-carboxamide Hydrochloride]",0.2,119 nM and 309 nM,,
COCCN1CCC(C(=O)NO)(S(=O)(=O)c2ccc(OCCCn3nnc(-c4ccc(OC(F)(F)F)cc4)n3)cc2)CC1 [Example 48],0.2,159 nM,,
O=C(NO)C1(S(=O)(=O)c2ccc(OCCCn3nnc(-c4ccc(OC(F)(F)F)cc4)n3)cc2)CCN(C2CC2)CC1 [Example 49],0.3,1950 nM,,
"O=C(NO)C1(S(=O)(=O)c2ccc(OCCCc3nc(-c4ccc(OC(F)(F)F)cc4)no3)cc2)CCN(C2CC2)CC1 [Example 51, 1-cyclopropyl-N-hydroxy-4-{[4-(3-{3-[4-(trifluoromethoxy)phenyl]-1,2,4-oxadiazol-5-yl}propoxy)phenyl]sulfonyl}piperidine-4-carboxamide Hydrochloride]",0.2,98.7 nM,,
O=C(NO)C1(S(=O)(=O)c2ccc(OCCCn3nnc(-c4ccc(OC(F)(F)F)cc4)n3)cc2)CCN(CC2CC2)CC1 [Example 53],1,2900 nM,,
NC(=O)c1cccc(OCCOc2ccc(S(=O)(=O)C3(C(=O)NO)CCOCC3)cc2)c1 [Example 54],10.5,388 nM,,
CC(C)C(=O)c1cccc(CCCOc2ccc(S(=O)(=O)C3(C(=O)NO)CCOCC3)cc2)c1 [Example 95],,,2.7,788
O=C(NO)C1(S(=O)(=O)c2ccc(OCCCc3cccc(-c4ccco4)c3)cc2)CCOCC1 [Example 97],,,3.3,473
O=C(NO)C1(S(=O)(=O)c2ccc(OCCCc3cccc(Cc4ccccc4)c3)cc2)CCOCC1 [Example 98],,,1.8,1450
O=C(NO)C1(S(=O)(=O)c2ccc(OCCc3cccc(-c4ccncc4)c3)cc2)CCOCC1 [Example 113],,,0.2,161
O=C(NO)C1(S(=O)(=O)c2ccc(OCCc3cccc(-c4ccccc4F)c3)cc2)CCOCC1 [Example 115],,,0.9,1980
O=C(NO)C1(S(=O)(=O)c2ccc(OCCc3cccc(-c4ccc(F)cc4)c3)cc2)CCOCC1 [Example 123],,,1.4,2130
O=C(NO)C1(S(=O)(=O)c2ccc(OCCc3cccc(-c4cccnc4)c3)cc2)CCOCC1 [Example 125],,,0.2,146

Structure (SMILES),IC50 (Human recombinant MMP-13; [1]) [nM],Ki (Human recombinant MMP-9; [2]),IC50 (Human recombinant MMP-13; value outside parenthesis) [nM],Ki (Human recombinant MMP-9; value in parenthesis) [nM]
Cc1ccc(-c2cccc(CCOc3ccc(S(=O)(=O)C4(C(=O)NO)CCOCC4)cc3)c2)cc1 [Example 127],,,5.5,4230
O=C(NO)C1(S(=O)(=O)c2ccc(OCCCc3cccc(-c4ccc(F)cc4)c3)cc2)CCN(C2CC2)CC1 [Example 139],,,0.4,1390
COCCN1CCC(C(=O)NO)(S(=O)(=O)c2ccc(OCCCc3cccc(-c4ccc(F)cc4)c3)cc2)CC1 [Example 140],,,0.5,754
O=C1Nc2ccc(-c3noc(CCCOc4ccc(S(=O)(=O)C5(C(=O)NO)CCN(C6CC6)CC5)cc4)n3)cc21 [Example 142],,,7.5,310
O=C(NO)C1(S(=O)(=O)c2ccc(OCCCc3cccc(-c4ccc(OC(F)(F)F)cc4)c3)cc2)CCOCC1 [Example 147],,,28.3,7970
O=C(NO)C1(S(=O)(=O)c2ccc(OCCCc3cccc(-c4ccccn4)c3)cc2)CCOCC1 [Example 148],,,3.1,427
O=C(NO)C1(S(=O)(=O)c2ccc(OCCCc3cccc(-c4ccncc4)c3)cc2)CCOCC1 [Example 149],,,1.3,94.5
O=C(NO)C1(S(=O)(=O)c2ccc(OCCCc3cccc(-c4cccnc4)c3)cc2)CCOCC1 [Example 150],,,0.6,125
COCCN1CCC(C(=O)NO)(S(=O)(=O)c2ccc(OCCCc3nc(-c4ccccc4OC(F)(F)F)no3)cc2)CC1 [Example 152],,,11.8,44.5
O=C(NO)C1(S(=O)(=O)c2ccc(OCCCc3cccc(Br)c3)cc2)CCOCC1 [Example 154],,,0.8,151
CCc1ccccc1-c1noc(CCCOc2ccc(S(=O)(=O)C3(C(=O)NO)CCN(CCOC)CC3)cc2)n1 [Example 155],,,9.7,172
O=C(NO)C1(S(=O)(=O)c2ccc(OCCOc3cccc(-c4ccccc4)c3)cc2)CCOCC1 [Example 157],,,3.5,1390
CC(C)c1ccc(-c2cccc(CCCOc3ccc(S(=O)(=O)C4(C(=O)NO)CCOCC4)cc3)c2)cc1 [Example 160],,,505,> 10000
O=C(NO)C1(S(=O)(=O)c2ccc(OCCCc3cccc(-c4cccc(F)c4)c3)cc2)CCOCC1 [Example 161],,,2.6,1730
O=C(NO)C1(S(=O)(=O)c2ccc(OCCCc3cccc(-c4ccccc4Cl)c3)cc2)CCOCC1 [Example 162],,,15.6,3150
O=C(NO)C1(S(=O)(=O)c2ccc(OCCCc3cccc(-c4ccccc4F)c3)cc2)CCOCC1 [Example 163],,,2.5,2500
Cc1ccccc1-c1cccc(CCCOc2ccc(S(=O)(=O)C3(C(=O)NO)CCOCC3)cc2)c1 [Example 164],,,20,2720
Cc1ccc(-c2cccc(CCCOc3ccc(S(=O)(=O)C4(C(=O)NO)CCOCC4)cc3)c2)cc1C [Example 165],,,147,9750
COCCN1CCC(C(=O)NO)(S(=O)(=O)c2ccc(OCCCc3nc(-c4ccc(CC(C)C)cc4)no3)cc2)CC1 [Example 175],,,1.4,1390
